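Step 1: Grow cells in 96-well plates. Step 2: Expose to compound for 48 hours at 5 concentrations. Step 3: Interpolate endpoints linearly; if unreached, use highest concentration. The concentration for full growth arrest is given as TGI.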
Key:
Assay in all cases: inhibition of tumour cell growth, NCI panel, 48 h
SW-620 colon = test system: SW-620 colon
HOP-92 NSCLC = test system: HOP-92 NSCLC
NCI-H522 lung = test system: NCI-H522 lung
SN12C renal = test system: SN12C renal
OVCAR-3 ovarian = test system: OVCAR-3 ovarian
CAKI-1 renal = test system: CAKI-1 renal
MOLT-4 leukemia = test system: MOLT-4 leukemia
HCT-116 colon = test system: HCT-116 colon
U251 CNS = test system: U251 CNS
LOX IMVI melanoma = test system: LOX IMVI melanoma
RPMI-8226 leukemia = test system: RPMI-8226 leukemia
EKVX NSCLC = test system: EKVX NSCLC
SNB-75 CNS = test system: SNB-75 CNS
MDA-MB-231 breast = test system: MDA-MB-231 breast
PC-3 prostate = test system: PC-3 prostate
DU-145 prostate = test system: DU-145 prostate
MDA-MB-435 = test system: MDA-MB-435
MCF7 breast = test system: MCF7 breast
BT-549 breast = test system: BT-549 breast

SMILES | TGI (SW-620 colon) [µM] | TGI (HOP-92 NSCLC) [µM] | TGI (NCI-H522 lung) [µM] | TGI (SN12C renal) [µM] | TGI (OVCAR-3 ovarian) [µM] | TGI (CAKI-1 renal) [µM] | TGI (MOLT-4 leukemia) [µM] | TGI (HCT-116 colon) [µM] | TGI (U251 CNS) [µM] | TGI (LOX IMVI melanoma) [µM] | TGI (RPMI-8226 leukemia) [µM] | TGI (EKVX NSCLC) [µM] | TGI (SNB-75 CNS) [µM] | TGI (MDA-MB-231 breast) [µM] | TGI (PC-3 prostate) [µM] | TGI (DU-145 prostate) [µM] | TGI (MDA-MB-435) [µM] | TGI (MCF7 breast) [µM] | TGI (BT-549 breast) [µM]
O=C1COc2cc(NC(=S)Nc3ccccc3)ccc2N1 | > 100 | > 100 | > 100 | > 100 | > 100 | > 100 | > 100 | > 100 | > 100 | > 100 | > 100 | > 100 | > 100 |  |  |  |  |  | 
N#CSCC(Cl)=CCl (mixture of isomers) | > 100 | > 100 | > 100 | > 100 | > 100 |  | 97.5 | > 100 | > 100 | 71.7 | > 100 | > 100 | > 100 | > 100 | > 100 | > 100 | > 100 |  | 
N[C@@H]1CCN(c2c(F)cc3c(=O)c(C(=O)O)cn4c3c2Oc2c-4ccc3c2ccc2ccccc23)C1 | > 100 | 61.7 | > 100 | > 100 | > 100 | > 100 | > 100 |  | 10.5 | > 100 | 36.3 | > 100 |  |  | > 100 | > 100 | > 100 | 3.34 | > 100
COc1ccc(Cn2c(=O)c(OC)c(C)c3cc4ccccc4cc32)cc1 | > 100 |  | 59.6 | 42.6 | > 100 | > 100 | 53 | 43 | 80.6 | 41.7 |  | 60.3 | > 100 | > 100 | 49.2 | > 100 | > 100 | > 100 | > 100
CC1(C)OCN(c2ccc(N3CCOCC3)cc2)Cn2c1nc1ccccc12 | > 100 | > 100 | > 100 | > 100 | > 100 |  | > 100 | > 100 | > 100 | > 100 | 86.6 | > 100 | > 100 |  |  |  |  |  | 
CCCCCCNCCc1cnc[nH]1 | > 100 | > 100 | > 100 | > 100 | > 100 | > 100 | > 100 | > 100 | > 100 | > 100 | > 100 | > 100 | > 100 | > 100 | > 100 | > 100 | > 100 | > 100 | 
CN(/N=C/c1ccc(C(=O)O)cc1)C1=NCCCCN1 |  |  | > 100 | > 100 | > 100 | > 100 | > 100 | > 100 | > 100 | > 100 | > 100 | > 100 | > 100 | > 100 | > 100 | > 100 | > 100 | > 100 | > 100
Cc1nc2ccc(Br)cc2c(=O)n1-c1nnc(C(C)(C)C)s1 | > 10 | > 10 | > 10 | > 10 | > 10 | > 10 | > 10 | > 10 | > 10 | > 10 | > 10 | > 10 | > 10 | > 10 | > 10 | > 10 | > 10 | > 10 | 
C=CCCON(C(=O)OC(C)(C)C)c1ccccc1 | > 100 | > 100 | > 100 | > 100 | > 100 | > 100 | > 100 | > 100 | > 100 | > 100 | > 100 | > 100 | > 100 | > 100 | > 100 | > 100 | > 100 |  | > 100
O=C1/C(=C\c2ccc([N+](=O)[O-])cc2)N(S(=O)(=O)c2ccccc2)c2ncccc21 | 34.2 |  | 54.4 | 50.2 | 31.3 | 20.9 | 13.5 | 43.1 | 34.2 | 47.5 | 41 |  | 43.1 | 38.4 | 33.4 | 75.4 | 47.2 | > 100 | 32.7
Cc1ccc(-n2[nH]nc(C(N)=O)c2=O)cc1 | > 100 |  | > 100 | > 100 | > 100 | > 100 | > 100 | > 100 | > 100 |  | > 100 | > 100 | > 100 | > 100 | > 100 | > 100 | > 100 | > 100 | > 100
COC(=O)[C@@H]1C[C@H]2OC(=O)CC[C@]2(C)O[C@H]1[C@H]1O[C@@](C)(O)CCC[C@H]1C | > 50 |  | > 50 | > 50 | > 50 | > 50 | > 50 | > 50 | > 50 | > 50 | > 50 | > 50 |  | > 50 | > 50 | > 50 | > 50 | > 50 | > 50
CC1(C)C2CCC1(C)C(N/C(Sc1ccccc1)=C(/C(Cl)=C(Cl)Cl)[N+](=O)[O-])C2 (stereo not drawn) | 24 |  |  | 31 | 17.7 | 28.5 | > 100 | 28.8 | 23.5 |  |  | 57.8 | 30.4 | 22 | 21.1 | 61.1 | 25.9 | 24 | 28.8
CCC1=CCN(c2cc(C)ccn2)OC1c1ccc(OC)cc1 (stereo not drawn) | > 100 |  | 52.1 | 64.6 | > 100 | > 100 | 82.4 | 71.8 | 44.1 | > 100 | 62.6 | > 100 | > 100 |  |  |  |  |  | 
